Where “and” joins values, the source holds several entries; their conditions need not be identical. Equal entries are not always repeated.
What was measured:
[1] = test system: Mtb H37Rv WT; details: cited from earlier work
[2] = biological target: T1, PptT (Mycobacterium tuberculosis, UniProt O33336); assay: Kinetic mechanism assay for N-ACP PKS13 substrate; type: biochemical
T1 sequence (O33336 1-227): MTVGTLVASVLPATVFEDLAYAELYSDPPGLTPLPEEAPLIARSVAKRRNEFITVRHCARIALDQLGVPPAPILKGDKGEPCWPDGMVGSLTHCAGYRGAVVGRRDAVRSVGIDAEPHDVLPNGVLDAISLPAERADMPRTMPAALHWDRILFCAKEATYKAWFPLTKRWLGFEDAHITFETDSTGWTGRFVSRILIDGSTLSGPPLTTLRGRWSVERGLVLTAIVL

[3] = test system: Mtb pptT cKD +ATc; assay: microbe, parasite or virus in culture; type: cell-based; details: Mycobacterium tuberculosis, read-out: MIC90 PptT KD +ATc
[4] = biological target: T1, PptT; assay: FP-based PptT enzyme assay; type: biochemical
[5] = biological target: T1, PptT; assay: BpsA assay of PptT activity with native CoA; type: biochemical
[6] = biological target: T1, PptT; assay: Differential scanning fluorimetry thermal shift assay; type: binding; details: for ΔTm of CoA-preincubated PptT: 50 μM Ralt-1, Hepes buffer without arginine/glutamate
[7] = biological target: T1, PptT; assay: Preincubation and rapid dilution assay; type: biochemical; details: 10 μM each preincubated, 500-fold dilution
[8] = test system: Mtb pptT cKD -ATc (PptT depleted); type: cell-based, Mycobacterium tuberculosis; details: PptT depleted by withholding ATc
[9] = biological target: T2, CoA-saturated PptT (Mycobacterium tuberculosis, UniProt O33336); assay: biochemical; type: binding
T2 sequence (O33336 1-227): T1 sequence (O33336 1-227)

[10] = test system: Mtb H37Rv WT; type: cell-based, Mycobacterium tuberculosis
[11] = test system: Mtb H37Rv; details: 10 μM, 24 hours, Mtb on filters
[12] = biological target: T3, Mtb DHFR (Mycobacterium tuberculosis, UniProt P9WNX1); assay: Dihydrofolate reductase; type: biochemical
T3 sequence (P9WNX1 1-161): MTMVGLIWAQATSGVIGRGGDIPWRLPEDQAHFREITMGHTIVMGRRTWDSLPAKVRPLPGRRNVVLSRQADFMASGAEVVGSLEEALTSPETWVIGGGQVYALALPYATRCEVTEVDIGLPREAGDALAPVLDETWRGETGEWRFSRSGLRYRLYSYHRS

[13] = test system: Mtb pptH KO; assay: Minimal inhibitory concentration determination, pptH KO; type: cell-based; details: Mycobacterium tuberculosis, read-out: MIC90 ΔPptH

Row | Structure (SMILES) | MIC90 against Mtb [1] [µM] | mode of inhibition with respect to the ACP substrate [2] | MIC [3] [µM] | maximum inhibition ([4]; FP assay, BDP-CoA, normalized) [%] | IC50 ([4]; IC50 PptT, FP assay at 100 nM PptT enzyme concentration) | IC50 ([4]; IC50 PptT, FP assay, fresh/resupplied powder or purity-checked sample) [nM] | IC50 ([4]; IC50 against rPptT) [nM] | Hill slope (h) ([4]; concentration-response curve, FP assay) | IC50 [5] [nM] | ΔTm of CoA-preincubated PptT ([6]; 1 mM CoA) [°C] | ΔTm of CoA-preincubated PptT ([6]; 2 mM CoA) [°C] | gain in melting temperature (Tm) of PptT ([6]; 1:10 molar ratio of protein to Ralt-1) [°C] | reversibility of binding to PptT [7] | MIC90 PptT KD -ATc [8] [nM] | Kd [9] [nM] | MIC90 H37Rv [10] [µM] | whole-cell activity / target profile against Mtb (in words) [10] | % Uptake from media [11] [%] | IC50 [12] [nM] | MIC [13] [µM]
1 | CN(Cc1cnc2nc(N)nc(N)c2n1)c1ccc(C(=O)N[C@@H](CCC(=O)O)C(=O)O)cc1 [Methotrexate] | > 100000 |  |  |  |  |  |  |  |  |  |  |  |  |  |  |  |  |  |  | 
2 | Cc1nc2ccc(CN(C)c3ccc(C(=O)N[C@@H](CCC(=O)O)C(=O)O)s3)cc2c(=O)[nH]1 [Ralt-1, Raltitrexed] |  | noncompetitive mode of inhibition | > 100 | ≥ 100 | 70 nM and 65 nM | ~50 | 730 | 1.5 | 250 | 4 | 3 | 15 | readily reversible | >100000 | 290 ± 29 | >100 | no activity | 1.2 ± 0.1 | 8500 | > 100

From PMC10942122 (Science Advances, 2024)
